Test results as given in paper PMC12362431, “Kinetic Dissection of the Reaction of Human GDP-L-Fucose Synthase” (ACS Catalysis, 2025).
Where two headings read alike, the source gives them in different places. Blank lines part the entries; values can stand above or below the molecule they belong to.

What was measured:
[1] = molecular target: enzyme/NADPH4 (GFS/NADPH4 complex) (Homo sapiens, UniProt Q13630); assay: Fluorescence titration, equilibrium binding (quenching of intrinsic protein fluorescence)
[2] = molecular target: T1, wild-type GFS (Homo sapiens, UniProt Q13630); assay: Global simulation fitting of mechanism b to transient stopped-flow curves; type: biochemical; details: release from the ternary product complex enzyme/NADP+/GDP-L-fucose
T1 construct: made in house; host or cells: E. coli Rosetta 2(DE3)
Method: Spectrofluorometric analysis of ligand binding
Fluorescence titrations of wild-type GFS in the binding of coenzyme, substrate and/or product were performed using a fluorescence spectrophotometer F-4500 (Hitachi, Ltd., Tokyo, Japan).
Emission spectra were recorded in the range 300–500 nm at 1200 nm/min with the excitation […]
25 mM NaCl, pH 8.0) without agitation (25 °C). […] The resulting fluorescence signals were plotted versus ligands concentrations and the data were fitted to a hyperbol ic equation (Eq. S6) to obtain the Kd value (Figure S8, S9; Table S3): […]
where F is the fluorescence emission, [L] is concentration of ligand, F1 is the initial and F2 is the final fluorescence signal, [E] is the enzyme subunit concentration. […]
the fluorescence measurements. […]
Standard errors for the fitted rate constants were estimated as standard deviations based on the variability observed during global fitting . The goodness of fit to the model was assessed by confidence contour analysis, in which all parameters, except for k-1, were well constrained by the data. […]

[3] = molecular target: T2, GFS complex with NADPH4 (Homo sapiens, UniProt Q13630); assay: Stopped-flow transient kinetic analysis of binding of GDP-L-fucose (fluorescence quenching)
T2 construct: made in house; host or cells: E. coli Rosetta 2(DE3)

[4] = molecular target: GFS; design: method as in not given; details: earlier studies of GFS, source organism not given; ref not given; cited from earlier work
[5] = molecular target: enzyme/NADP+ (GFS/NADP+ complex) (Homo sapiens, UniProt Q13630); assay: Fluorescence titration, equilibrium binding (quenching of intrinsic protein fluorescence)
[6] = molecular target: T3, GFS variant H186K (Homo sapiens, UniProt Q13630, H186K); assay: Steady-state initial-rate kinetics and primary KIE (NADPH consumption, absorbance at 340 nm); type: biochemical
T3 construct: made in house; host or cells: E. coli Rosetta 2(DE3)

[7] = molecular target: T4, GFS variant C116S (Homo sapiens, UniProt Q13630, C116S); assay: as above; type: biochemical; details: deuterated vs unlabeled substrate/coenzyme, pH 8.0, 37 °C, in 1/s
T4 construct: made in house; host or cells: E. coli Rosetta 2(DE3)

[8] = tested on: GFS; design: method as in not given; details: earlier studies of GFS, source organism not given; ref not given; cited from earlier work; remark: listed apart in the source
[9] = molecular target: T1, wild-type GFS; assay: Steady-state initial-rate kinetics and primary KIE (NADPH consumption, absorbance at 340 nm); type: biochemical
[10] = molecular target: T5, GFS variant Y143F (Homo sapiens, UniProt Q13630, Y143F); assay: as above; type: biochemical
T5 construct: made in house; host or cells: E. coli Rosetta 2(DE3)

[11] = molecular target: apo GFS (ligand-free wild-type GFS) (Homo sapiens, UniProt Q13630); assay: Fluorescence titration, equilibrium binding (quenching of intrinsic protein fluorescence); details: for Kd: apo GFS 0.40 μM, 10 mM Tris, 25 mM NaCl, pH 8.0, 25 °C
[12] = nonlinear fit of kobs with eq S15
[13] = deuterated vs unlabeled substrate/coenzyme, pH 8.0, 37 °C, in 1/s
[14] = varied substrate 3, pH 8.0, 37 °C

T2 sequence (Q13630 8-321, one chain of several): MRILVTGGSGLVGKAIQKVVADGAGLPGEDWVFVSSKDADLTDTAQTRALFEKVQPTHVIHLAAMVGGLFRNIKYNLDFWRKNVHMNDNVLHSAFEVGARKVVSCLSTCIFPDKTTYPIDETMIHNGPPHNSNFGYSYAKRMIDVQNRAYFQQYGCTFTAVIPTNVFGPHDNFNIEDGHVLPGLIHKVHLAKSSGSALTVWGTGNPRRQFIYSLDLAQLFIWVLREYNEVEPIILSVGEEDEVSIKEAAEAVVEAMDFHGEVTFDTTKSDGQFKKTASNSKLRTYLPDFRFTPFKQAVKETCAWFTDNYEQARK
T1 sequence (Q13630 8-321): as the sequence (Q13630 8-321, one chain of several) above
apo GFS (ligand-free wild-type GFS), sequence (Q13630 8-321): as the sequence (Q13630 8-321, one chain of several) above
enzyme/NADPH4 (GFS/NADPH4 complex), sequence (Q13630 8-321, one chain of several): as above
T3 sequence (Q13630 whole entry H186K): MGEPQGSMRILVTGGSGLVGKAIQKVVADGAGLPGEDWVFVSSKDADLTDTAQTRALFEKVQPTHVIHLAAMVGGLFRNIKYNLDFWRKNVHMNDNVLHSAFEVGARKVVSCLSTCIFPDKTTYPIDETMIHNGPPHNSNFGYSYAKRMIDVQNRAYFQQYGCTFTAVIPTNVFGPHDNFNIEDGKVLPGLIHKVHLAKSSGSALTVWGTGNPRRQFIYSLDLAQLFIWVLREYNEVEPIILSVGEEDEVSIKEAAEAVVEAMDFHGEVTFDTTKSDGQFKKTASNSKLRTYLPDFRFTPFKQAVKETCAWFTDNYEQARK
T5 sequence (Q13630 whole entry Y143F): as the sequence (Q13630 whole entry H186K) above, with Y143F, K186H counted along it
enzyme/NADP+ (GFS/NADP+ complex), sequence (Q13630 8-321, one chain of several): as the sequence (Q13630 8-321, one chain of several) above
T4 sequence (Q13630 whole entry C116S): as the sequence (Q13630 whole entry H186K) above, with C116S, K186H counted along it

Kd [1]: 1.1 ± 0.2 µM
tighter binding to enzyme-NADPH4 than to enzyme-NADP+ ([1]; ratio of Kd values): ~12 fold
rate constant for the release [2]: 12 s^–1
koff ([3]; global simulation fit, lower bound only, read-out: koff (association step)): ≥ 11 s⁻¹
kon ([3]; global simulation fit, lower bound only, read-out: kon (association step)): ≥ 2e+06 M⁻¹ s⁻¹
k′1 ([3]; global simulation fit, range 0.3–0.8 s^–1): 0.6 s^–1
k′–1 ([3]; global simulation fit, range 0.5–1.4 s^–1): 0.9 s^–1
Kd ([3]; global simulation fit, range 3–12 μM, read-out: Kd (two-step binding)): 7 µM
k′1 (forward conformational change) [3, 12]: 0.6 ± 0.1 s⁻¹
k′–1 (reverse conformational change, GDP-L-fucose release rate) [3, 12]: 0.5 ± 0.1 s^–1
Kd ([3]; nonlinear fit of kobs with eq S15, GFS 2.0 μM, NADPH4 15.0 μM, pH 8.0, 37 °C, read-out: Kd (encounter complex, two-step binding)): 4 ± 2 µM
Kd [5]: 13 ± 4 µM
SMILES: CC1OC(OP(=O)(O)OP(=O)(O)OCC2OC(n3cnc4c(=O)[nH]c(N)nc43)C(O)C2O)C(O)C(O)C1O [1a, GDP-L-fucose]
Ki [4]: 55.3 µM

kinetic isotope effect on kcat (Dkcat) [6, 13]: 1.12 ± 0.08
kinetic isotope effect on kcat/Km, Dkcat/Km^3 [6, 14]: 1.1 ± 0.5
kinetic isotope effect on kcat (Dkcat) [7]: 1.0 ± 0.2
kinetic isotope effect on kcat (Dkcat) [9, 13]: 1.03 ± 0.05
kinetic isotope effect on kcat/Km, Dkcat/Km^NADPH ([9]; varied coenzyme, substrate 3 100 μM, pH 8.0, 37 °C): 1.6 ± 0.2
kinetic isotope effect on kcat/Km, Dkcat/Km^3 [9, 14]: 1.4 ± 0.4
kinetic isotope effect on kcat (Dkcat) [10, 13]: 3.9 ± 0.3
kinetic isotope effect on kcat/Km, Dkcat/Km^3 [10, 14]: 4 ± 1
SMILES: [2H][C@@H]1C=CN([C@@H]2O[C@H](COP(=O)(O)OP(=O)(O)OC[C@H]3O[C@@H](n4cnc5c(N)ncnc54)[C@H](OP(=O)(O)O)[C@@H]3O)[C@@H](O)[C@H]2O)C=C1C(N)=O [[4S-^2H]-NADPH]
KIE on the enzymatic rate [8]: 1.4

SMILES: Nc1nc2c(ncn2[C@@H]2O[C@H](COP(=O)(O)OP(=O)(O)O)[C@@H](O)[C@H]2O)c(=O)[nH]1 [GDP, guanosine 5′-diphosphate]
Ki [4]: 60.5 µM

Kd [11]: 0.3 ± 0.1 µM
tighter binding to the free GFS than NADP+ ([11]; ratio of Kd values): 27 fold
SMILES: NC(=O)C1=CN([C@@H]2O[C@H](COP(=O)(O)OP(=O)(O)OC[C@H]3O[C@@H](n4cnc5c(N)ncnc54)[C@H](OP(=O)(O)O)[C@@H]3O)[C@@H](O)[C@H]2O)CCC1 [NADPH4, 1″,4″,5″,6″-tetrahydro-NADPH]

rate constant for the release [2]: 26 s^–1
Kd [11]: 8 ± 2 µM
SMILES: NC(=O)c1ccc[n+]([C@@H]2O[C@H](COP(=O)([O-])OP(=O)(O)OC[C@H]3O[C@@H](n4cnc5c(N)ncnc54)[C@H](OP(=O)(O)O)[C@@H]3O)[C@@H](O)[C@H]2O)c1 [NADP+]

Km ([9]; varied NADPH, substrate 3 100 μM, pH 8.0, 37 °C): 0.75 ± 0.03 µM
SMILES: NC(=O)C1=CN([C@@H]2O[C@H](COP(=O)(O)OP(=O)(O)OC[C@H]3O[C@@H](n4cnc5c(N)ncnc54)[C@H](OP(=O)(O)O)[C@@H]3O)[C@@H](O)[C@H]2O)C=CC1 [NADPH]
